Molecules are shown by their SMILES.

The assay deals with Transient receptor potential cation channel subfamily M member 8 (Homo sapiens, UniProt Q7Z2W7). The experiment in a line: The agonisation or antagonisation of the receptor can be quantified by means of a Ca2+-sensitive dye (e.g. FURA, Fluo-4, etc.). Agonists on their own bring about an increase in the Ca2+-signal; antagonists in the presence of, for example, menthol bring about a reduction in the Ca2+-signal (in each case detected by means of the Fluo-4 dye, which due to the Ca2+ has other fluorescent properties).To begin with, in a manner known per se, in cell culture flasks a fresh culture of transformed HEK cells is prepared. The HEK293-TRPM8 test cells are removed using trypsin from the cell culture flasks and 40 000 cells/well are sown with 100 μl medium in 96-well plates (Greiner #655948 Poly-D-lysine coated). In order to induce the TRPM8 receptor the growth medium tetracycline is mixed in (DMEM/HG, 10% FCS tetracycline-free, 4 mM L-glutamine, 15 μg/ml blasticidin, 100 μg/ml hygromycin B, 1 μg/ml tetracycline). The next day the cells are charged with Fluo-4Am dye and the test is performed. The procedure is as follows: Addition of 100 μl/well of dye solution Ca-4 Kit (RB 141, Molecular Devices) per 100 μl of medium (DMEM/HG, 10% FCS tetracycline-free, 4 mM L-glutamine, 15 μg/ml blasticidin, 100 μg/ml hygromycin B, 1 μg/ml tetracycline). Incubation in the incubator for 30 minutes/37° C./5% CO2, 30 minutes/RT. […].
Sequence of Transient receptor potential cation channel subfamily M member 8 (Q7Z2W7 whole entry): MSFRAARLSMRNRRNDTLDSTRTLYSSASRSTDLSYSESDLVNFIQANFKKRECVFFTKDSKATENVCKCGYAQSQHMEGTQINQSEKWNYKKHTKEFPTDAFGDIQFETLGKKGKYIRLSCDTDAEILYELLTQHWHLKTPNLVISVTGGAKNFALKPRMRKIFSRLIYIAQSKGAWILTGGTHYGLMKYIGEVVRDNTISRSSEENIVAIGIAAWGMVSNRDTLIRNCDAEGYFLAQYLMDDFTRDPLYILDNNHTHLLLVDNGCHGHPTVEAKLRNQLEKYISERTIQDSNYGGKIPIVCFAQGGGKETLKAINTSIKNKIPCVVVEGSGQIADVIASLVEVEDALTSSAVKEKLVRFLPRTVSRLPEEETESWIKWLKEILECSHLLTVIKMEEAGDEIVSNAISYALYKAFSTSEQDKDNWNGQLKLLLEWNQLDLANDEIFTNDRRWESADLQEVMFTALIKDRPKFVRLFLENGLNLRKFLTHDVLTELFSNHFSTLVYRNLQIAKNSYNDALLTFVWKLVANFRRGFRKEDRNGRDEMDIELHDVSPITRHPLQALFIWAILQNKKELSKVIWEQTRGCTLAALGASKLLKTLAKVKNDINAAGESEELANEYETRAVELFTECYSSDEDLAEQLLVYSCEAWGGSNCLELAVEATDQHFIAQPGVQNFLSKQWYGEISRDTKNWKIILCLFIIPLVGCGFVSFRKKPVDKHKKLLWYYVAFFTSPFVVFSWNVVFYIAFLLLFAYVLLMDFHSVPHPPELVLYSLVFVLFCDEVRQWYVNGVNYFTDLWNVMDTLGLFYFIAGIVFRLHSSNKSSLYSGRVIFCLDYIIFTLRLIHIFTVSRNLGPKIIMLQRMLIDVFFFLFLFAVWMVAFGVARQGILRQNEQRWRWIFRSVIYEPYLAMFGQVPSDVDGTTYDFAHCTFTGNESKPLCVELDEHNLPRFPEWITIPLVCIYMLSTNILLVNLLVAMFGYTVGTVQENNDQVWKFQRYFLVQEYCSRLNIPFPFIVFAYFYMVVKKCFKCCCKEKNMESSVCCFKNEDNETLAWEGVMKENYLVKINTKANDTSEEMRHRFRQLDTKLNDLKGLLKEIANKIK

With `COc1cnc(-c2ccccn2)nc1NC(C)C(C)C` (configuration not stated), the concentration giving a half-maximal response (EC50) (as a rule, the midpoint of the concentration-response curve) is 500 nM. The value for `COc1cnc(-c2ccccn2)nc1OC(C)C` was 3200 nM.
